Results published in PMC4506958 (FEBS Open Bio, 2015).

Tests used:
[1] = molecular target: T1, Keap1 (Kelch-like ECH-associated protein 1) (Homo sapiens, UniProt Q14145); test: X-ray crystal structures at […] Å (soaking form 3vnh, cocrystallization form 3vng); SPR; AlphaScreen competition with Nrf2 peptide; type: binding
T1 construct: Kelch domain (residues 321–609)

[2] = molecular target: Nrf2 ETGE motif (Homo sapiens) (UniProt Q16236); test: ITC; settings: cited from earlier work

Sequence of Keap1 Kelch domain (Q14145 321-609): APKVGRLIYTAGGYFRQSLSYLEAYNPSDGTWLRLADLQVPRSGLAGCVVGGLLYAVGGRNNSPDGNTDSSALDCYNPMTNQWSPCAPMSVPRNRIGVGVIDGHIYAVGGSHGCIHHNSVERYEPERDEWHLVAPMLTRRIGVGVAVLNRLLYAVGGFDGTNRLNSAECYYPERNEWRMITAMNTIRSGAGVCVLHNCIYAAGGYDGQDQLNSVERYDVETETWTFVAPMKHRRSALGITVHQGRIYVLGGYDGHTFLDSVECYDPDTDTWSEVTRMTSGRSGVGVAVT
T1 sequence (Q14145 321-609): as above

Molecule | Kd [1] | Kd [2]
O=C(O)COc1cccc(CNC(=O)Nc2nnc(-c3ccco3)o2)c1 [Ligand1, 2-(3-((3-(5-(furan-2-yl)-1,3,4-oxadiazol-2-yl)ureido)methyl)phenoxy)acetic acid] | > 50000 nM | –
Keap1 Kelch domain (from UniProt Q14145) | – | 8 nM
